How the values were obtained:
Assay type in all cases: cell-based, human
[1] = test system: MiaPaCa-2-LVT; test: Inhibition of proliferation (XTT viability assay, 4 days)
Method: To analyze dose-response curves of each chemotherapeutic agent, a proliferation assay was performed.
Cells were seeded in 96 well plates and after 4-6 hours gemcitabine or oxaliplatin was added in following concentrations: 1000, 500, 250, 100 and 20 ng/ml. The proliferation assay was incubated for 4 days at 37° C. and 5% CO2. 50 μl XTT complete reagent (50 parts XTT+1 part coupl. reagent mixed) was added and incubated at 37° C. Measurement of absorbance (cells plus supernatant) was done with the Tecan Safire after 3 h and 4 h. Inhibition of proliferation was calculated compared to medium values set as 100%. EC50 values for gemcitabine and oxaliplatin were calculated in the GraphPad Prism program.

[2] = test system: KATO-III; test: IMAB362-induced ADCC on gastric cancer cells, also after chemotherapy pretreatment; conditions: Kato III pretreated 3 days; Irinotecan 1000 ng/ml, Docetaxel 5 ng/ml, Cisplatin 2000 ng/ml
Method: Peripheral blood mononuclear cells (PBMCs) including NK cells, monocytes, […] or other effector cells from healthy human donors were purified by Ficoll Hypaque density centrifugation. Washed effector cells were seeded in X-Vivo medium. Kato III cells which express CLDN18.2 endogenously and are of gastric origin were used as target cells in this setting. Target cells stably expressed luciferase, lucifer yellow, which is oxidized by viable cells only.

[3] = test system: Kato III cells; test: Cell cycle analysis of gastric cancer cells with cytostatic compounds
Method: Kato III cells, a human gastric tumor cell line, was cultivated in RPMI 1640 medium (Invitrogen) containing 20% FCS (Perbio) and 2 mM Glutamax (Invitrogen) at 37° C. and 5% CO2, with or without cytostatic compounds. 5-FU (Neofluor from NeoCorp AG) was tested at a concentration of 10 or 100 ng/ml, and oxaliplatin (Hospira) was tested at a concentration of 50 or 500 ng/ml. […] Cells were harvested with EDTA/trypsin, washed and analysed.
Cell cycle stages were determined based on measurement of cellular DNA content. This allows one to discriminate between cells in the G1-, S- or G2-phase of the cell cycle. In the S-phase DNA duplication occurs whereas in the G2-phase cells grow and prepare for mitosis. Cell cycle analysis was done using the CycleTEST PLUS DNA Reagent Kit from BD Biosciences following the manufacturer's protocol. Flow cytometry acquisition and analysis were performed by using BD FACS CantoII (BD Biosciences) and FlowJo (Tree Star) software.
Kato III cells were pretreated for 4 days with Irinotecan or Docetaxel and analysed for CLDN18.2 expression and cell cycle arrest.

[4] = test system: Kato III cells; test: Kato III cells pretreated with cytostatic compounds: cell growth, viable cells, CLDN18.2 expression; conditions: for claudin18.2 expression versus medium cultivated cells / level of viable cells versus medium cultivated cells: Kato III pretreated 3 days, Irinotecan 1000 ng/ml, Docetaxel 5 ng/ml, Cisplatin 2000 ng/ml; for cell growth: Kato III pretreated for 4 days

| SMILES | sensitivity of cells to the agent [1] | effect of pretreatment on IMAB362 induced ADCC [2] | cell cycle effect [3] | claudin18.2 expression versus medium cultivated cells [4] | level of viable cells versus medium cultivated cells [4] | cell growth [4] |
| --- | --- | --- | --- | --- | --- | --- |
| O=C1[O][Pt]2([NH][C@@H]3CCCC[C@H]3[NH]2)[O]C1=O [oxaliplatin, [(1R,2R)-cyclohexane-1,2-diamine](ethanedioato-O,O′)platinum(II)] | most sensitive |  |  |  |  |  |
| CC(=O)O[C@@]12CO[C@@H]1C[C@H](O)[C@@]1(C)C(=O)[C@H](O)C3=C(C)[C@@H](OC(=O)[C@H](O)[C@@H](NC(=O)OC(C)(C)C)c4ccccc4)C[C@@](O)([C@@H](OC(=O)c4ccccc4)[C@H]21)C3(C)C [Docetaxel, 1,7β,10β-trihydroxy-9-oxo-5β,20-epoxytax-11-ene-2α,4,13α-triyl 4-acetate 2-benzoate 13-{(2R,3S)-3-[(tert-butoxycarbonyl)-amino]-2-hydroxy-3-phenylpropanoate}] |  | augments the potency of IMAB362 to induce ADCC | cell cycle arrest in the G2-phase | increased | lower level of viable cells | dose dependent inhibition of cell growth |
| O=c1[nH]cc(F)c(=O)[nH]1 [5-FU, 5-fluoro-1H-pyrimidine-2,4-dione] |  |  | blocked predominantly in the S-phase |  |  |  |
| CCc1c2c(nc3ccc(OC(=O)N4CCC(N5CCCCC5)CC4)cc13)-c1cc3c(c(=O)n1C2)COC(=O)[C@]3(O)CC [Irinotecan, (S)-4,11-diethyl-3,4,12,14-tetrahydro-4-hydroxy-3,14-dioxo1H-pyrano[3′,4′:6,7]-indolizino[1,2-b]quinolin-9-yl-[1,4′-bipiperidine]-1′-carboxylate] |  | augments the potency of IMAB362 to induce ADCC | cell cycle arrest in the S/G2-phase | increased | lower level of viable cells | dose dependent inhibition of cell growth |
| N.N.[Cl][Pt][Cl] [Cisplatin, cis-diaminedichloroplatinum(II)] |  | augments the potency of IMAB362 to induce ADCC |  | increased | lower level of viable cells |  |

Reference: patent publication US11826402B2, “Combination therapy involving antibodies against claudin 18.2 for treatment of metastatic pancreatic adenocarcinoma” (Astellas Pharma Inc., priority 2013, dated 2023)
